Values of other authors as cited in patent US9839609B2 (priority 2009, dated 2017).

Experiments:
[1] = chronic administration
[2] = in vivo
[3] = oral, rats

fraction of DMSO metabolized into MSM in the body [2]	Structure (SMILES)	dose chronically administered without any serious adverse effects [1]	LD50 [3]
Approximately 17%	C[S+](C)[O-] [DMSO, Dimethyl sulfoxide]	5 g/kg daily	
	CS(C)(=O)=O [MSM, Methylsulfonylmethane]		approximately 17 g/kg
